# Active and inactive are the calls of the source. No cut-off for these calls is given here.
# Experiments:
# [1] = biological target: T1, Mitogen-activated protein kinase 14 (Homo sapiens, UniProt Q16539); assay: Inhibition of p38alpha-dependent TNFalpha production in human whole blood
# [2] = biological target: T1, Mitogen-activated protein kinase 14; assay: Inhibition of p38alpha by immunosorbent based kinase assay
# [3] = biological target: T2, Serine/threonine-protein kinase PLK4 (Homo sapiens) (UniProt O00444); assay: Inhibition of SAK at 10 uM
# T2 sequence (whole entry): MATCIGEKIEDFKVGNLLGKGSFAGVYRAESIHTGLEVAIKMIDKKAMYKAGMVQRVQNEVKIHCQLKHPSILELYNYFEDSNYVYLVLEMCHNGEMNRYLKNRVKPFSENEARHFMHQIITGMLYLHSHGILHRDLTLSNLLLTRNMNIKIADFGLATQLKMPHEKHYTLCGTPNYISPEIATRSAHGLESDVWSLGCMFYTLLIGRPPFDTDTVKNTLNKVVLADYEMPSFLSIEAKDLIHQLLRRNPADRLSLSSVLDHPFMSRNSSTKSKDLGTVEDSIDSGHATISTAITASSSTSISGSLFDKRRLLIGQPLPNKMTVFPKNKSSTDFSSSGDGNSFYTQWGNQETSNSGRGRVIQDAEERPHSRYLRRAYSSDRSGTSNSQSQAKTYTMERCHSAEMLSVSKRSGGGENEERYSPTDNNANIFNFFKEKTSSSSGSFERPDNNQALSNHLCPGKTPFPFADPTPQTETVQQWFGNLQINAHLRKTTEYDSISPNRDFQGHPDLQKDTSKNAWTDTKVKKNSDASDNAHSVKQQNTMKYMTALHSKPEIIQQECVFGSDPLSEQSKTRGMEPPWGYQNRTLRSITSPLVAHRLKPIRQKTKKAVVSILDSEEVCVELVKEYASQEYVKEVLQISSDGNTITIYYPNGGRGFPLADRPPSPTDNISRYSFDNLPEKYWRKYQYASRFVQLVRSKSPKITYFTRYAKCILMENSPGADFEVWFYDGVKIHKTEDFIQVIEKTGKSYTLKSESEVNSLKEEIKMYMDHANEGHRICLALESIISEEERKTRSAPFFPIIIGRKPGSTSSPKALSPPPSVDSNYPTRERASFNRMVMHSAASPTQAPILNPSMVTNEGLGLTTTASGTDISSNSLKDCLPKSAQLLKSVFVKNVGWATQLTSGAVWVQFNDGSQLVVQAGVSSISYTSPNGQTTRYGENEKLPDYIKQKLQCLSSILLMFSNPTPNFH
# [4] = biological target: Vascular endothelial growth factor receptor 2 (Homo sapiens) (UniProt P35968); assay: Inhibition of VEGFR2 at 10 uM
# [5] = biological target: BDNF/NT-3 growth factors receptor (Homo sapiens) (UniProt Q16620); assay: Inhibition of TRKB at 10 uM
# [6] = biological target: Insulin receptor (Homo sapiens) (UniProt P06213); assay: Inhibition of INSR at 10 uM
# Chain of Insulin receptor (Homo sapiens) (P06213 28-758 limits assumed): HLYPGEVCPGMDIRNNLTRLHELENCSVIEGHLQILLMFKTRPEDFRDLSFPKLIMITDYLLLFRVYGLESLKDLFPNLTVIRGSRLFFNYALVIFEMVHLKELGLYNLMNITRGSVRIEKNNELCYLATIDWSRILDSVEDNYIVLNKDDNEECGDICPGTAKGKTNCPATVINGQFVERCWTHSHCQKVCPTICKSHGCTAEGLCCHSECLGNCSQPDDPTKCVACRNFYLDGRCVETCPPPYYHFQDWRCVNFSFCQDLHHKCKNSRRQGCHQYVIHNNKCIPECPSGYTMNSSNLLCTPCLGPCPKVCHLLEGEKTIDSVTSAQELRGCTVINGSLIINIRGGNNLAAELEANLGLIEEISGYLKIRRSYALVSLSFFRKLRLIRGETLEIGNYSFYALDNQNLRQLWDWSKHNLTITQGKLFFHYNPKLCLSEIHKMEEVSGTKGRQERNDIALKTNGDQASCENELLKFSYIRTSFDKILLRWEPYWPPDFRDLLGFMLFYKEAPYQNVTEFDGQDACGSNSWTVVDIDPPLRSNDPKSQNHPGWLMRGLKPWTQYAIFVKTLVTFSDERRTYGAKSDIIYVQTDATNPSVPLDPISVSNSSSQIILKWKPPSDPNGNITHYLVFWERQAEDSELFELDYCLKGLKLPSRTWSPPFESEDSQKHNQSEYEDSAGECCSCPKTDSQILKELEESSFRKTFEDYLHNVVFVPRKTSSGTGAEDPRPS
# Chain of Insulin receptor (Homo sapiens) (P06213 763-1382 limits assumed): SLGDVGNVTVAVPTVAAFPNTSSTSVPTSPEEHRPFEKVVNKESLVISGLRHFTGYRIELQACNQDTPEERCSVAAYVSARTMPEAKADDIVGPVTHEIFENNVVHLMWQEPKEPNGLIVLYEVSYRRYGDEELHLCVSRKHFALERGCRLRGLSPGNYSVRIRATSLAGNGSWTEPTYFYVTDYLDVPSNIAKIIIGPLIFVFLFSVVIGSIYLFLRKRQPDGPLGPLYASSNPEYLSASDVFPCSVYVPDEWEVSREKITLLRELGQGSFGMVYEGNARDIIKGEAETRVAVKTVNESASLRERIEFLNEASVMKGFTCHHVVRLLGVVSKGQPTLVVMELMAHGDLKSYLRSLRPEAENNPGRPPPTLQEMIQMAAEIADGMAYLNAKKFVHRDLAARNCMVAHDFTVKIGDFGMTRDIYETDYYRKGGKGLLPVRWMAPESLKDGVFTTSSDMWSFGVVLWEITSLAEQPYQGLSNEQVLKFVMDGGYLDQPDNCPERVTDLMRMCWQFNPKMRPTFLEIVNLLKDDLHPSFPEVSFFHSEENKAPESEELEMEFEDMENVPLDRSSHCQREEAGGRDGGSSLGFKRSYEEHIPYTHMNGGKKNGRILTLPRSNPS
# [7] = biological target: Proto-oncogene tyrosine-protein kinase Src (Homo sapiens) (UniProt P12931); assay: Inhibition of SRC at 10 uM
# Chain of Proto-oncogene tyrosine-protein kinase Src (Homo sapiens) (P12931 2-536 limits assumed): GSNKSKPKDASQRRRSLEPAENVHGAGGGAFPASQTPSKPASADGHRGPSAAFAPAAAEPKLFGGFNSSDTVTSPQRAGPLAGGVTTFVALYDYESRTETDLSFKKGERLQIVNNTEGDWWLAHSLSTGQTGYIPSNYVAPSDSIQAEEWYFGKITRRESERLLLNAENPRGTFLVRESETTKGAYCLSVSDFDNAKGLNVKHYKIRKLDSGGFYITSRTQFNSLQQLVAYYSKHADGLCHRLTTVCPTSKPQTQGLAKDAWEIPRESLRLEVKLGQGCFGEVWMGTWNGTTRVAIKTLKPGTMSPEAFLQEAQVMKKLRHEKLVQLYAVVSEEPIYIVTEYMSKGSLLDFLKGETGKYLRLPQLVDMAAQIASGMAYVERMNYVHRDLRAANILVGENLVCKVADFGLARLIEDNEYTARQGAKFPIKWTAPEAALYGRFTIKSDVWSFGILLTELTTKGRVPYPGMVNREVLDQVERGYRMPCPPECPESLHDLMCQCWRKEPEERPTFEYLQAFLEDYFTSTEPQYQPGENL
# [8] = biological target: Tyrosine-protein kinase receptor UFO (Homo sapiens) (UniProt P30530); assay: Inhibition of AXL at 10 uM
# Chain of Tyrosine-protein kinase receptor UFO (Homo sapiens) (P30530 whole entry): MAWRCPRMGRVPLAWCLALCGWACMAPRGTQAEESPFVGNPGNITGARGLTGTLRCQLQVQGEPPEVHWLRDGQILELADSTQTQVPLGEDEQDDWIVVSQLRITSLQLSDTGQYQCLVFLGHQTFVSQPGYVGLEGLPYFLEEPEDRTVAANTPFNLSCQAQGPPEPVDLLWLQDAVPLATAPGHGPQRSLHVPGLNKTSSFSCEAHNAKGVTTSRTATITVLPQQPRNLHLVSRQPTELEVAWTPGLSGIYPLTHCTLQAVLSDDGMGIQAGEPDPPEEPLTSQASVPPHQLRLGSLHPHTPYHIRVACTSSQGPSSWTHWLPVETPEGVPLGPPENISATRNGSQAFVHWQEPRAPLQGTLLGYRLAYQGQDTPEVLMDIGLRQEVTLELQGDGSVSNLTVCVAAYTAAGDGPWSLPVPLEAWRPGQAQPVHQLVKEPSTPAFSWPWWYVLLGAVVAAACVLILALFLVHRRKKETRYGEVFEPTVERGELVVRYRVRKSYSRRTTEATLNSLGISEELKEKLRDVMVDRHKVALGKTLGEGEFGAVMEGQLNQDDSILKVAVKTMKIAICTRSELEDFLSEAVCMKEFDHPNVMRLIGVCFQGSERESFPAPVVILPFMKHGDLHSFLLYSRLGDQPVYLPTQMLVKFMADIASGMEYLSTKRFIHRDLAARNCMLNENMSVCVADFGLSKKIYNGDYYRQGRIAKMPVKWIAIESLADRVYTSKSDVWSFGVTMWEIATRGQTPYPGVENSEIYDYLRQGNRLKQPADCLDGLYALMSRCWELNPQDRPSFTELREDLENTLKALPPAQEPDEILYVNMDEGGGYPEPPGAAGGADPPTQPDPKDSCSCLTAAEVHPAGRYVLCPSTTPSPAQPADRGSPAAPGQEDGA
# [9] = biological target: RAC-alpha serine/threonine-protein kinase (Homo sapiens) (UniProt P31749); assay: Inhibition of AKT1 at 10 uM
# [10] = biological target: Insulin-like growth factor 1 receptor (Homo sapiens) (UniProt P08069); assay: Inhibition of IGF1R at 10 uM
# [11] = test system: Serine/threonine-protein kinase B-raf (Homo sapiens), P15056 [V600E]; assay: Inhibition of BRAF V600E mutant at 10 uM
# [12] = biological target: Serine/threonine-protein kinase N1 (Homo sapiens) (UniProt Q16512); assay: Inhibition of PRK1 at 10 uM
# [13] = biological target: Focal adhesion kinase 1 (Homo sapiens) (UniProt Q05397); assay: Inhibition of FAK at 10 uM
# [14] = biological target: Serine/threonine-protein kinase PLK1 (Homo sapiens) (UniProt P53350); assay: Inhibition of PLK1 at 10 uM
# [15] = biological target: Hepatocyte growth factor receptor (Homo sapiens) (UniProt P08581); assay: Inhibition of MET at 10 uM
# Chain of Hepatocyte growth factor receptor (Homo sapiens) (P08581 whole entry): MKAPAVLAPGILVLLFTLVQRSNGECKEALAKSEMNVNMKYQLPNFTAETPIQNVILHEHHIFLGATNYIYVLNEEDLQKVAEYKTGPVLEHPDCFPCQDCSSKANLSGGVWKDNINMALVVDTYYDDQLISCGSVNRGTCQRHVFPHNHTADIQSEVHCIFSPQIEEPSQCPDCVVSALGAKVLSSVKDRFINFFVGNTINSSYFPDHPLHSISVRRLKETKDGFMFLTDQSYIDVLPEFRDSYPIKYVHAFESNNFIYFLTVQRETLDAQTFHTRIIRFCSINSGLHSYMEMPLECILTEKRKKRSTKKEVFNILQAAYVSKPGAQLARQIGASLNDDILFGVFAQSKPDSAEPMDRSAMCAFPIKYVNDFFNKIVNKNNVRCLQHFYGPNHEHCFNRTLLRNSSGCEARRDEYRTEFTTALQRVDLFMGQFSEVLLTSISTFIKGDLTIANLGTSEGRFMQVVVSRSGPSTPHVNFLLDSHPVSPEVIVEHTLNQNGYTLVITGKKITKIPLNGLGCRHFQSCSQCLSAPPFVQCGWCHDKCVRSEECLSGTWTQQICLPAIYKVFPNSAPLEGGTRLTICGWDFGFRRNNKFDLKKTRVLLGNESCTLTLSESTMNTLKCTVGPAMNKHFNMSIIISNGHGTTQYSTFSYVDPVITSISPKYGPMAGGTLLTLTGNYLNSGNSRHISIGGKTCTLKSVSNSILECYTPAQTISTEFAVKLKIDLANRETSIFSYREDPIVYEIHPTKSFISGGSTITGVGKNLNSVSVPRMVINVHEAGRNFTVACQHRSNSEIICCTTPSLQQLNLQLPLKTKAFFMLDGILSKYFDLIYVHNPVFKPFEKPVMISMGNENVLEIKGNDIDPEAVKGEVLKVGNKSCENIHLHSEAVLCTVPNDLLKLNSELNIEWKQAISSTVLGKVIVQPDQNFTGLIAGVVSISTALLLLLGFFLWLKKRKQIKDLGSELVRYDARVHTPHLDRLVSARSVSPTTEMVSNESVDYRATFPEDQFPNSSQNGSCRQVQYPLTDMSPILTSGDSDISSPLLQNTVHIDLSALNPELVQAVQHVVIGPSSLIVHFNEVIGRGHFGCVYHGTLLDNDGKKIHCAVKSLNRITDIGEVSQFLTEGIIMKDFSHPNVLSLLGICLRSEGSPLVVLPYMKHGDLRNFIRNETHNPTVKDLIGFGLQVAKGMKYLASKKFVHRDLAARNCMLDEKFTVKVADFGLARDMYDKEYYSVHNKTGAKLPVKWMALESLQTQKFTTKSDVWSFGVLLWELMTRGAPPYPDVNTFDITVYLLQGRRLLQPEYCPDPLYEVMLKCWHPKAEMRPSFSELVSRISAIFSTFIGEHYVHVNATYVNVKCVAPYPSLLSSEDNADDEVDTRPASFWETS
# [16] = biological target: T3, NUAK family SNF1-like kinase 1 (Homo sapiens) (UniProt O60285); assay: Inhibition of ARK5 at 10 uM
# T3 sequence (whole entry): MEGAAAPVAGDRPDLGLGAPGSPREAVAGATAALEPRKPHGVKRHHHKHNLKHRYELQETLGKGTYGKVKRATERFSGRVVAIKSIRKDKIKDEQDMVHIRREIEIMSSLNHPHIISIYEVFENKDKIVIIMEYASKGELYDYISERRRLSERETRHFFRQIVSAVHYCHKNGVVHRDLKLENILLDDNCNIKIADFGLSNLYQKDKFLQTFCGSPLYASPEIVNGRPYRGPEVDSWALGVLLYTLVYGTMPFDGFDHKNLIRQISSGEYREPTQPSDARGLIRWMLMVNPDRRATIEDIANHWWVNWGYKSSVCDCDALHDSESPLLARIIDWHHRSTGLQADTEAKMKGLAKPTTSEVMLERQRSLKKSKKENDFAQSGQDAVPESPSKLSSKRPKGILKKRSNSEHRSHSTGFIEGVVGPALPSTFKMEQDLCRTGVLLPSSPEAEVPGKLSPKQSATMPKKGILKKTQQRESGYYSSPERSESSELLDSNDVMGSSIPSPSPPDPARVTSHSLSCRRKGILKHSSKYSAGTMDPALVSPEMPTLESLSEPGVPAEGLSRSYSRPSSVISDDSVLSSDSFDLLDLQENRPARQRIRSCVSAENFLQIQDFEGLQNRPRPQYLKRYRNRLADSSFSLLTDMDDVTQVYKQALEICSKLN
# [17] = biological target: Aurora kinase B (Homo sapiens) (UniProt Q96GD4); assay: Inhibition of AuroraB at 10 uM
# Chain of Aurora kinase B (Homo sapiens) (Q96GD4 whole entry): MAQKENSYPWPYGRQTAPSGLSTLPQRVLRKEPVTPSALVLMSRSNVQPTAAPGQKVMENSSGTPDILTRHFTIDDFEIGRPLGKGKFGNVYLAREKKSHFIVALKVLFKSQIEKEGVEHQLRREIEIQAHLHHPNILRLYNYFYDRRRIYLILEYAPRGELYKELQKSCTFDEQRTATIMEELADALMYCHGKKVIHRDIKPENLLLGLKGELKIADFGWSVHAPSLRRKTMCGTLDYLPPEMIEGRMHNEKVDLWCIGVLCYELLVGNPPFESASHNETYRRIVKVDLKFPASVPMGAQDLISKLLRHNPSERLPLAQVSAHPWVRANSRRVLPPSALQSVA
# [18] = biological target: Casein kinase II subunit alpha (Homo sapiens) (UniProt P68400); assay: Inhibition of CK2alpha1 at 10 uM
# Chain of Casein kinase II subunit alpha (Homo sapiens) (P68400 whole entry, looked up): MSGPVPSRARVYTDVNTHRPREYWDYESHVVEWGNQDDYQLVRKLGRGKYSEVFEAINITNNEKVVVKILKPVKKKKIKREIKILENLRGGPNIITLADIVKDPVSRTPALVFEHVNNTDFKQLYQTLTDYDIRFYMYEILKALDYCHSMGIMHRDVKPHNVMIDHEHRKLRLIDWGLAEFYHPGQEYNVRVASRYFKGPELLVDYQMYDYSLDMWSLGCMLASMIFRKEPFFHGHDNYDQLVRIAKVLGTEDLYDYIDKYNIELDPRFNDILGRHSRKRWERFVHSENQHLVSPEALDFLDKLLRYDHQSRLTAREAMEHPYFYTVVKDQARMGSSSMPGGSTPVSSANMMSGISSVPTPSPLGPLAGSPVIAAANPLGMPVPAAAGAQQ
compound,measurement,setting,value
O=C1c2ccc(Nc3ccc(F)cc3F)cc2CCc2ccc(OCCN3CCOCC3)cc21,IC50,[1],80 nM
same,IC50,[2],10 nM
O=C1c2ccc(Nc3ccc(F)cc3F)cc2CCc2c(O)cccc21,inhibition,[3],inactive
same,inhibition,[4],inactive
same,inhibition,[5],inactive
same,inhibition,[6],inactive
same,IC50,[1],37300 nM
same,inhibition,[7],inactive
same,inhibition,[8],inactive
same,inhibition,[9],inactive
same,IC50,[2],20 nM
same,inhibition,[10],inactive
same,inhibition,[11],inactive
same,inhibition,[12],inactive
same,inhibition,[13],inactive
same,inhibition,[14],inactive
same,inhibition,[15],inactive
same,inhibition,[16],inactive
same,inhibition,[17],inactive
same,inhibition,[18],inactive
O=C1c2ccc(Nc3ccc(F)cc3F)cc2CCc2cc(OCCO)ccc21,IC50,[1],4700 nM
same,IC50,[2],20 nM
COc1ccc2c(c1)C(=O)c1ccc(Nc3ccc(C(F)(F)F)cc3N)cc1CC2,inhibition,[3],inactive
same,inhibition,[4],inactive
same,inhibition,[5],inactive
same,inhibition,[6],inactive
same,IC50,[1],25500 nM
same,inhibition,[7],inactive
same,inhibition,[8],inactive
same,inhibition,[9],inactive
same,IC50,[2],900 nM
same,inhibition,[10],inactive
same,inhibition,[11],inactive
same,inhibition,[12],inactive
same,inhibition,[13],inactive
same,inhibition,[14],inactive
same,inhibition,[15],inactive
same,inhibition,[16],inactive
same,inhibition,[17],inactive
same,inhibition,[18],inactive
CC1(C)OC[C@@H](COc2ccc3c(c2)CCc2cc(Nc4ccc(F)cc4F)ccc2C3=O)O1,inhibition,[3],inactive
same,inhibition,[4],inactive
same,inhibition,[5],inactive
same,inhibition,[6],inactive
same,IC50,[1],123000 nM
same,inhibition,[7],inactive
same,inhibition,[8],inactive
same,inhibition,[9],inactive
same,IC50,[2],360 nM
same,inhibition,[10],inactive
same,inhibition,[11],inactive
same,inhibition,[12],inactive
same,inhibition,[13],inactive
same,inhibition,[14],inactive
same,inhibition,[15],inactive
same,inhibition,[16],inactive
same,inhibition,[17],inactive
same,inhibition,[18],inactive
COc1ccc2c(c1)C(=O)c1ccc(Nc3ccc(F)c(F)c3F)cc1CC2,IC50,[1],81000 nM
same,IC50,[2],3530 nM
COc1ccc2c(c1)CCc1cc(Nc3ccccc3N)ccc1C2=O,IC50,[1],12300 nM
same,IC50,[2],70 nM
O=C1c2ccc(Oc3ccc(F)cc3F)cc2CCc2ccc(OCCN3CCOCC3)cc21,IC50,[1],4500 nM
same,IC50,[2],80 nM
CC1(C)OC[C@@H](CCOc2ccc3c(c2)C(=O)c2ccc(Nc4ccc(F)cc4F)cc2CC3)O1,inhibition,[3],inactive
same,inhibition,[4],inactive
same,inhibition,[5],inactive
same,inhibition,[6],inactive
same,IC50,[1],320 nM
same,inhibition,[7],inactive
same,inhibition,[8],inactive
same,inhibition,[9],inactive
same,IC50,[2],10 nM
same,inhibition,[10],inactive
same,inhibition,[11],inactive
same,inhibition,[12],inactive
same,inhibition,[13],inactive
same,inhibition,[14],inactive
same,inhibition,[15],inactive
same,inhibition,[16],inactive
same,inhibition,[17],inactive
same,inhibition,[18],inactive
COc1ccc2c(c1)C(=O)c1ccc(Nc3ccc(F)cc3N)cc1CC2,IC50,[1],1900 nM
same,IC50,[2],40 nM
CC1(C)OC[C@@H](COc2ccc3c(c2)C(=O)c2ccc(Nc4ccc(F)cc4F)cc2CC3)O1,IC50,[1],230 nM
same,IC50,[2],40 nM
O=C1c2ccc(Oc3ccc(F)cc3F)cc2CCc2ccc(OC[C@@H](O)CO)cc21,IC50,[1],6700 nM
same,IC50,[2],40 nM
O=C1c2ccc(Nc3ccc(F)cc3F)cc2CCc2cc(OCCN3CCOCC3)ccc21,IC50,[1],40000 nM
same,IC50,[2],20 nM
COc1ccc2c(c1)CCc1cc(Nc3ccc(F)cc3F)ccc1C2=O,IC50,[1],10200 nM
same,IC50,[2],20 nM
O=C1c2ccc(Nc3ccccc3)cc2CCc2ccc(O)cc21,IC50,[1],2200 nM
same,IC50,[2],60 nM
COc1ccc2c(c1)C(=O)c1ccc(Oc3ccc(F)cc3F)cc1CC2,IC50,[2],100 nM
